Results published in PMC5855801, “Benzothiophenone Derivatives Targeting Mutant Forms of Estrogen Receptor-α in Hormone-Resistant Breast Cancers” (International Journal of Molecular Sciences, 2018).

Experiments:
[1] = biological target: T1, full-length ERα (estrogen binding site) (Homo sapiens, UniProt P03372); assay: E2 displacement fluorescence polarization assay (PolarScreen ERα Competitor Green); settings: highest concentration 6 µM, compared to positive control E2
T1 construct: in the presence of 25 nM full-length ERα and 4.5 nM flourescein-E2; purchased Life Technologies P2698
T1 sequence (P03372 1-595): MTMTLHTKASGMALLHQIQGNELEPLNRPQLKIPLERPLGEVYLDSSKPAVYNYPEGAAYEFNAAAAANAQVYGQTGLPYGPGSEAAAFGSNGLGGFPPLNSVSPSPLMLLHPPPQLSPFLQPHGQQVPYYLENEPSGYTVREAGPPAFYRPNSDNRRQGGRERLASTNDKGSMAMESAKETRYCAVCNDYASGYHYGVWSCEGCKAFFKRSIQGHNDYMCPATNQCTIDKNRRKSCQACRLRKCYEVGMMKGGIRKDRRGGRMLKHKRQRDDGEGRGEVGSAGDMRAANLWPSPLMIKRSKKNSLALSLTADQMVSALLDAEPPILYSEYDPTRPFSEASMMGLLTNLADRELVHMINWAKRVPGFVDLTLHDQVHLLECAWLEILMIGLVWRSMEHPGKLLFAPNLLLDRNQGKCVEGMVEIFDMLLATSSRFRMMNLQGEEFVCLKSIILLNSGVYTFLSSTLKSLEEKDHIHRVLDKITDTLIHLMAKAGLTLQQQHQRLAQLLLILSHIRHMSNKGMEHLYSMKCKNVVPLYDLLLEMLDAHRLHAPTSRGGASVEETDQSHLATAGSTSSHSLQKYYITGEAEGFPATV
Procedure: It should be noted that selective estrogen receptor modulators (SERMs) such as tamoxifen displace co-activator protein from AF2 allosterically, i.e., by binding to the estrogen binding site (EBS). To ascertain whether VPC-16606 is not an EBS binder, 17 β-estradiol (E2) displacement was assessed with the Polar Screen Estrogen Receptor-α Competitor Green Assay Kit (P2698, Life Technologies, Carlsbad, CA, USA).
E2 displacement was assessed with the PolarScreen ERα Competitor Assay Green kit (P2698; LifeTechnologies) as per the instructions of the manufacturer. Briefly, 50 µL of assay buffer containing VPC-16606 were added to a 50-μL mixture containing 2× full-length ERα and flourescein-E2 in each well of a […] black plate to obtain final concentrations of 0.2–6.3 μM of the test compound in the presence of 25 nM full-length ERα and 4.5 nM flourescein-E2. After 2 h, polarisation was measured on a Tecan F500 microplate reader.

[2] = test system: MCF7 cells; assay: Presto Blue cell viability assay, MCF7; format: cell-based, human; settings: MCF7, 96 h, two-fold dilution starting at 50 µM
Procedure: The Presto Blue cell viability assay was used to assess the growth inhibitory potential of VPC-16606 on ERα^+ T47D, MCF7, ZR75-1 and TamR3 cells. They were treated for 96 h with a two-fold dilution range of the compound starting at 50 µM.
Cell viability was determined using the Presto Blue cell viability assay (Thermo Fisher Scientific, Waltham, MA, USA). Cells were seeded in clear bottom black-walled 96-well plates at a density of 5 × 10^3 cells/well in 100 μL of their respective media. On the following day, the cells were treated with test compounds (0.001–22.5 μM) in the presence of 1 nM E2 and incubated at 37 °C. After 96 h, 30 μL of Presto Blue reagent was added and incubated for 10 min at 37 °C. The fluorescent signal from viable cells was measured at 590 nm.

CC(=O)N(/N=C1\Sc2c(C)cccc2C1=O)c1ccccc1Cl [VPC-16606]
Displacement of fluorescein labelled E2 (FL-E2) from the EBS [1]: minimal displacement | Cell growth (Presto Blue viability) [2]: significantly reduce the growth
